Reference: patent US8586591B2, “Aminopyrazine derivative and medicine” (Nippon Shinyaku Co., Ltd., priority 2009, dated 2013)
Where a name gives a salt, the structure may show the parent alone.

Molecular target: T1, JAK3 tyrosine kinase (Homo sapiens, UniProt P52333)
T1 construct: purchased Carnabioscience Co
T1 sequence (P52333 1-1124): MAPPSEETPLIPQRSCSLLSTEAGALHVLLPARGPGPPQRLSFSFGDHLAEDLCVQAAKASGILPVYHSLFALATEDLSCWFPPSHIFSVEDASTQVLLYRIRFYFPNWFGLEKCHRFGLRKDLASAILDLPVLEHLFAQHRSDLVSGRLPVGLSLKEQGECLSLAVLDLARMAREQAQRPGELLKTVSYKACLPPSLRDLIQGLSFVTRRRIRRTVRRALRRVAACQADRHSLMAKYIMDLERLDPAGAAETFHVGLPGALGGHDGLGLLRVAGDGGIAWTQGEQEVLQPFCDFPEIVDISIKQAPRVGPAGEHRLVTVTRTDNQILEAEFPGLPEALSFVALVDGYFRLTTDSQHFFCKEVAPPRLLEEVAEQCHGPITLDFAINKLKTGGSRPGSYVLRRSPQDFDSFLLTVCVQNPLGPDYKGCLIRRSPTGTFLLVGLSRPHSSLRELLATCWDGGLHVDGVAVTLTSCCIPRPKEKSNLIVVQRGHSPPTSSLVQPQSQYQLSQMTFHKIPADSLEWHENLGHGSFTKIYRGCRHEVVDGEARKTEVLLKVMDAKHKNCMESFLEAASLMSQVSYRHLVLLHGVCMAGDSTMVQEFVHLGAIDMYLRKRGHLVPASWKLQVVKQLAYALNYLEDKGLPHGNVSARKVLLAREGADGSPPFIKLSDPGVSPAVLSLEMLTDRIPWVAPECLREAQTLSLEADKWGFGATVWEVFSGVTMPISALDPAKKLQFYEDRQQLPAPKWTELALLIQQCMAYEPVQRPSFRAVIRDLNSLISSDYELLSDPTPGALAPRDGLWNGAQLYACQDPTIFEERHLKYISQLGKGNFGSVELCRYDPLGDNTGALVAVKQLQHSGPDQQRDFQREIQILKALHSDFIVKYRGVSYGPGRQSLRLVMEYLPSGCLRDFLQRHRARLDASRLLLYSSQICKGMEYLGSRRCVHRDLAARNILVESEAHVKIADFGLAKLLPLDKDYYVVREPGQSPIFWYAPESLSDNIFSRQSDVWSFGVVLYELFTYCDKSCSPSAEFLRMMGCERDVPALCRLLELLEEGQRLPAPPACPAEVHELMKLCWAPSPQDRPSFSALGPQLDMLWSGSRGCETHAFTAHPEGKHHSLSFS
Experiment: Test 1: inhibitory activity to JAK3 tyrosine kinase (ELISA)
Assay type: biochemical
Details: 25 μM ATP in substrate solution, 30° C. for 1 hour, n=2
Method: Test 1: Test for inhibitory activity to JAK2 and JAK3 tyrosine kinase 1. […] The test material was dissolved in dimethylsulfoxide (DMSO) to be 10 mM, and further diluted with DMSO to be 100-fold concentrations for measurement (1000, 300, 100, 30, 10, 3, 1, 0.3, 0.1, 0.03, 0.01 μM). In addition, solutions diluted with an assay buffer up to 20 times were used as solutions of the test material. As a negative control, a solution of DMSO diluted 20 times with an assay buffer was used. […] 2. Measurement of the Activities of JAK2 and JAK3 Tyrosine Kinases The activity was determined by ELISA. […] The absorbance was measured by means of a micro-plate reader (BIO-RAD; Model 3550) at 450 nm. 3. Analysis of the Results of the Measurement The measured absorbance was subjected to a non-linear regression analysis by means of a SAS system (SAS Institute Inc.), and the concentration (IC50) of the test material which inhibited 50% of the activity of each tyrosine kinase was estimated.

| Compound | IC50 [nM] |
| --- | --- |
| C[C@H](Nc1cc(C(=O)NC(C)(C)C)cc(Nc2cnccn2)n1)c1ccc(F)cc1 [Example 151, (S)—N-t-Butyl-2-[1-(4-fluorophenyl)ethylamino]-6-(pyrazin-2-ylamino)isonicotinamide] | 490 |
| COCCNC(=O)c1cc(Nc2cnccn2)nc(N[C@@H](C)c2ccc(F)cc2)c1 [Example 165, (S)-2-[1-(4-Fluorophenyl)ethylamino]-N-(2-methoxyethyl)-6-(pyrazin-2-ylamino)isonicotinamide] | 360 |
| C[C@H](Nc1cc(C(=O)NCc2ccccc2)cc(Nc2cnccn2)n1)c1ccc(F)cc1 [Example 162, (S)—N-Benzyl-2-[1-(4-fluorophenyl)ethylamino]-6-(pyrazin-2-ylamino)isonicotinamide hydrochloride] | 370 |
| C[C@H](Nc1cc(C(=O)N(C)C)cc(Nc2cnccn2)n1)c1ccc(F)cc1 [Example 149, (S)-2-[1-(4-Fluorophenyl)ethylamino]-N,N-dimethyl-6-(pyrazin-2-ylamino)isonicotinamide] | 690 |
| C[C@H](Nc1cc(OCC2CC2)cc(Nc2cnccn2)n1)c1ccc(F)cc1 [Example 138, (S)-4-(Cyclopropylmethoxy)-N^2-[1-(4-fluorophenyl)ethyl]-N^6-(pyrazin-2-yl)pyridine-2,6-diamine] | 420 |
| C[C@H](Nc1nc(C#N)cc(Nc2cnccn2)n1)c1ccc(F)cc1 [Example 143, (S)-2-[1-(4-Fluorophenyl)ethylamino]-6-(pyrazin-2-ylamino)pyrimidine-4-carbonitrile] | 2100 |
| C[C@@H](c1ccc(F)cc1)N(C)c1cc(-c2cnn(C)c2)cc(Nc2cnccn2)n1 [Example 139, (S)—N^2-[1-(4-Fluorophenyl)ethyl]-N^2-methyl-4-(1-methyl-1H-pyrazol-4-yl)-N^6-(pyrazin-2-yl)pyridine-2,6-diamine hydrochloride] | 290 |
| C[C@H](Nc1cc(C(=O)O)cc(Nc2cnccn2)n1)c1ccc(F)cc1 [Example 141, (S)-2-[1-(4-Fluorophenyl)ethylamino]-6-(pyrazin-2-ylamino)isonicotinic acid] | 440 |
| C[C@H](Nc1cc(C(=O)N2CCN(C)CC2)cc(Nc2cnccn2)n1)c1ccc(F)cc1 [Example 164, (S)-{2-[1-(4-Fluorophenyl)ethylamino]-6-(pyrazin-2-ylamino)pyridin-4-yl}(4-methylpiperazin-1-yl)methanone hydrochloride] | 470 |
| COC(=O)c1ccc(Nc2cnccn2)nc1N[C@@H](C)c1ccc(F)cc1 [Example 148, Methyl (S)-2-[1-(4-fluorophenyl)ethylamino]-6-(pyrazin-2-ylamino)nicotinate] | 810 |
| CNS(=O)(=O)c1ccc(-c2cc(Nc3cnccn3)nc(N[C@@H](C)c3ccc(F)cc3)n2)cc1 [Example 135, (S)-4-{2-[1-(4-Fluorophenyl)ethylamino]-6-(pyrazin-2-ylamino)pyrimidin-4-yl}-N-methylbenzenesulfonamide hydrochloride] | 320 |
| CC(=O)N1CCCN(c2cc(Nc3cnccn3)nc(N[C@@H](C)c3ccc(F)cc3)c2)CC1 [Example 130, (S)-1-(4-{2-[1-(4-fluorophenyl)ethylamino]-6-(pyrazin-2-ylamino)pyridin-4-yl}-1,4-diazepan-1-yl)ethanone] | 570 |
| C[C@H](Nc1nc(Nc2cnccn2)cc(N2CC[C@H]2C(N)=O)n1)c1ccc(F)cc1 [Example 156, (S)-1-{2-[(S)-1-(4-Fluorophenyl)ethylamino]-6-(pyrazin-2-ylamino)pyrimidin-4-yl}azetidine-2-carboxamide] | 580 |
| C[C@H](Nc1cc(C(=O)N2CCCC2)cc(Nc2cnccn2)n1)c1ccc(F)cc1 [Example 154, (S)-{2-[1-(4-Fluorophenyl)ethylamino]-6-(pyrazin-2-ylamino)pyridin-4-yl}(pyrrolidin-1-yl)methanone] | 340 |
| CC(C)NC(=O)c1cc(Nc2cnccn2)nc(N[C@@H](C)c2ccc(F)cc2)c1 [Example 155, (S)-2-[1-(4-Fluorophenyl)ethylamino]-N-isopropyl-6-(pyrazin-2-ylamino)isonicotinamide] | 390 |
| C[C@H](Nc1cc(Nc2ccccn2)cc(Nc2cnccn2)n1)c1ccc(F)cc1 [Example 132, (S)—N^2-[1-(4-Fluorophenyl)ethyl]-N^6-(pyrazin-2-yl)-N^4-(pyridin-2-yl)pyridine-2,4,6-triamine] | 350 |
| COC(=O)c1cc(Nc2cnccn2)nc(N[C@@H](C)c2ccc(F)cc2)c1 [Example 134, Methyl (S)-2-[1-(4-fluorophenyl)ethylamino]-6-(pyrazin-2-ylamino)isonicotinate] | 620 |

Now those with a lower IC50, led by results:

| IC50 [nM] | Compound |
| --- | --- |
| 160 | C[C@H](Nc1cc(Nc2cnccn2)cc(Nc2cnccn2)n1)c1ccc(F)cc1 [Example 137, (S)—N^2-[1-(4-Fluorophenyl)ethyl]-N^4,N^6-di(pyrazin-2-yl)pyridine-2,4,6-triamine] |
| 150 | C[C@H](Nc1cc(OC2CCOCC2)cc(Nc2cnccn2)n1)c1ccc(F)cc1 [Example 157, (S)—N^2-[1-(4-Fluorophenyl)ethyl]-N^6-(pyrazin-2-yl)-4-(tetrahydro-2H-pyran-4-yloxy)pyridine-2,6-diamine hydrochloride] |
| 230 | C[C@H](Nc1cc(C(=O)N2CCOCC2)cc(Nc2cnccn2)n1)c1ccc(F)cc1 [Example 161, (S)-{2-[1-(4-Fluorophenyl)ethylamino]-6-(pyrazin-2-ylamino)pyridin-4-yl}(morpholino)methanone] |
| 36 | C[C@H](Nc1cc(C(N)=O)cc(Nc2cnccn2)n1)c1ccc(F)cc1 [Example 145, (S)-2-[1-(4-Fluorophenyl)ethylamino]-6-(pyrazin-2-ylamino)isonicotinamide] |
| 210 | C[C@H](Nc1cc(C#N)cc(Nc2cnccn2)n1)c1ccc(F)cc1 [Example 144, (S)-2-[1-(4-Fluorophenyl)ethylamino]-6-(pyrazin-2-ylamino)isonicotinonitrile] |
| 170 | Cc1cn(-c2cc(Nc3cnccn3)nc(N[C@@H](C)c3ccc(F)cc3)c2)cn1 [Example 136, (S)—N^2-[1-(4-Fluorophenyl)ethyl]-4-(4-methyl-1H-imidazol-1-yl)-N^6-(pyrazin-2-yl)pyridine-2,6-diamine dihydrochloride] |
| 61 | C[C@H](Nc1cc(CO)cc(Nc2cnccn2)n1)c1ccc(F)cc1 [Example 140, (S)-{2-[1-(4-Fluorophenyl)ethylamino]-6-(pyrazin-2-ylamino)pyridin-4-yl}methanol] |
| 230 | C[C@H](Nc1cc(N2CCC3(CC2)OCCO3)cc(Nc2cnccn2)n1)c1ccc(F)cc1 [Example 133, N^2-[(S)-1-(4-Fluorophenyl)ethyl]-N^6-(pyrazin-2-yl)-4-(1,4-dioxa-8-azaspiro[4.5]decan-8-yl)pyridine-2,6-diamine] |
| 39 | C[C@H](Nc1nc(Nc2cnccn2)cc(N2CC(C(N)=O)C2)n1)c1ccc(F)cc1 [Example 158, (S)-1-{2-[1-(4-Fluorophenyl)ethylamino]-6-(pyrazin-2-ylamino)pyrimidin-4-yl}azetidine-3-carboxamide] |
| 46 | C[C@H](Nc1cc(N2CCS(=O)(=O)CC2)cc(Nc2cnccn2)n1)c1ccc(F)cc1 [Example 128, 4-{2-[(1S)-1-(4-Fluorophenyl)ethylamino]-6-(pyrazin-2-ylamino)pyridin-4-yl}-1λ^6,4-thiomorpholin-1,1-dione] |
| 200 | COc1cc(Nc2cnccn2)nc(N[C@@H](C)c2ccc(F)cc2)c1 [Example 127, (S)—N^2-[1-(4-Fluorophenyl)ethyl]-4-methoxy-N^6-(pyrazin-2-yl)pyridine-2,6-diamine] |
| 93 | CCNC(=O)c1cc(Nc2cnccn2)nc(N[C@@H](C)c2ccc(F)cc2)c1 [Example 152, (S)—N-Ethyl-2-[1-(4-fluorophenyl)ethylamino]-6-(pyrazin-2-ylamino) isonicotinamide] |
